Data from paper PMC10010643 (Cancer Chemotherapy and Pharmacology, 2023).
Where “and” joins values, the source holds several entries; their conditions need not be identical. Equal entries are not always repeated. Entries after “also recorded” stand apart in the source; their conditions may differ.

Test: Safety and tolerability, Part A single ascending-dose phase in healthy participants
Format: in vivo, human
Method: A further two cohorts were recruited. […] Each individual participated in one treatment period only, with the exception of the food-effect cohort (cohort A3) in which there were two treatment periods separated by at least 7 days washout. Participants resided at the Clinical Research Unit (CRU) from 1 day ahead of dosing (day − 1) to day 3 and returned for a follow-up visit 5–7 days after their final dose. For all cohorts, doses were administered in the fasted state in the morning of day 1 of Treatment Period 1. In the food-effect cohort, doses were given 30 min after the start of a high-fat breakfast (973 calories total: approximately 150 protein calories, 250 carbohydrate calories, and 500–600 fat calories) on day 1 of Treatment Period 2. For cohorts A1 to A5 in Treatment Period 1, dosing occurred such that one pair (one active and one placebo) were dosed at least 24 h before the remaining participants. Continuation to dose those who remained was at the investigator’s discretion. Escalating doses were administered following satisfactory sponsor and investigator review of the safety and tolerability data (up to 48 h post-final dose) and PK data (up to 24 h post-final dose) from the lower dose levels.
Safety and tolerability assessments included adverse event (AE) monitoring, physical examinations, laboratory assessments (hematology, clinical chemistry, and urinalysis), vital signs (blood pressure, pulse rate, and body temperature) and ECG.
No formal statistical assessment was performed for the safety analysis.

[1] = single and multiple doses, Parts A and B
[2] = single dose 5 mg (1 × 5 mg), fasted
[3] = single dose 20 mg (4 × 5 mg), fasted
[4] = single dose 50 mg (1 × 50 mg), fasted
[5] = single dose 50 mg (1 × 50 mg), fed
[6] = single dose 50 mg (10 × 5 mg), fasted
[7] = single dose 100 mg (2 × 50 mg), fasted
[8] = single dose 200 mg (4 × 50 mg), fasted
[9] = single dose 400 mg (8 × 50 mg), fasted
[10] = treatment-emergent period, Parts A and B

OC[C@H]1O[C@H](Sc2cncc(Br)c2)[C@H](O)[C@@H](n2cc(-c3cc(F)c(F)c(F)c3)nn2)[C@H]1O [GB1211]
TEAE Pain, participants (Part A 100 mg, fasted): 0 n (%)
TEAE Rash, participants (Part A 100 mg, fasted): 0 n (%)
TEAE Respiratory, thoracic and mediastinal disorders, participants (Part A 100 mg, fasted): 0 n (%)
TEAE Skin and subcutaneous tissue disorders, participants (Part A 100 mg, fasted): 0 n (%)
TEAE Wound, participants (Part A 100 mg, fasted): 0 n (%)
TEAE Back pain, participants (Part A 200 mg, fasted): 0 n (%)
TEAE Constipation, participants (Part A 200 mg, fasted): 0 n (%)
TEAE Cough, participants (Part A 200 mg, fasted): 0 n (%)
TEAE Decreased appetite, participants (Part A 200 mg, fasted): 0 n (%)
TEAE Diarrhea, participants (Part A 200 mg, fasted): 0 n (%)
TEAE Dry mouth, participants (Part A 200 mg, fasted): 0 n (%)
TEAE Dry skin, participants (Part A 200 mg, fasted): 0 n (%)
TEAE Dyspepsia, participants (Part A 200 mg, fasted): 0 n (%)
TEAE Gastrointestinal disorders, participants (Part A 200 mg, fasted): 0 n (%)
TEAE General disorders and administration site conditions, participants (Part A 200 mg, fasted): 0 n (%)
TEAE Headache, participants (Part A 200 mg, fasted): 0 n (%)
TEAE Infections and infestations, participants (Part A 200 mg, fasted): 0 n (%)
TEAE Injury, poisoning and procedural complications, participants (Part A 200 mg, fasted): 0 n (%)
TEAE Medical device site reaction, participants (Part A 200 mg, fasted): 0 n (%)
TEAE Metabolism and nutrition disorders, participants (Part A 200 mg, fasted): 0 n (%)
TEAE Musculoskeletal and connective tissue disorders, participants (Part A 200 mg, fasted): 0 n (%)
TEAE Nasopharyngitis, participants (Part A 200 mg, fasted): 0 n (%)
TEAE Nervous system disorders, participants (Part A 200 mg, fasted): 0 n (%)
TEAE Pain, participants (Part A 200 mg, fasted): 0 n (%)
TEAE Rash, participants (Part A 200 mg, fasted): 0 n (%)
TEAE Respiratory, thoracic and mediastinal disorders, participants (Part A 200 mg, fasted): 0 n (%)
TEAE Skin and subcutaneous tissue disorders, participants (Part A 200 mg, fasted): 0 n (%)
TEAE Wound, participants (Part A 200 mg, fasted): 0 n (%)
TEAE Back pain, participants (Part A 400 mg, fasted): 0 n (%)
TEAE Constipation, participants (Part A 400 mg, fasted): 0 n (%)
TEAE Cough, participants (Part A 400 mg, fasted): 0 n (%)
TEAE Decreased appetite, participants (Part A 400 mg, fasted): 0 n (%)
TEAE Diarrhea, participants (Part A 400 mg, fasted): 0 n (%)
TEAE Dry mouth, participants (Part A 400 mg, fasted): 0 n (%)
TEAE Dry skin, participants (Part A 400 mg, fasted): 0 n (%)
TEAE Dyspepsia, participants (Part A 400 mg, fasted): 0 n (%)
TEAE Gastrointestinal disorders, participants (Part A 400 mg, fasted): 0 n (%)
TEAE General disorders and administration site conditions, participants (Part A 400 mg, fasted): 0 n (%)
TEAE Headache, participants (Part A 400 mg, fasted): 0 n (%)
TEAE Infections and infestations, participants (Part A 400 mg, fasted): 0 n (%)
TEAE Injury, poisoning and procedural complications, participants (Part A 400 mg, fasted): 0 n (%)
TEAE Medical device site reaction, participants (Part A 400 mg, fasted): 0 n (%)
TEAE Metabolism and nutrition disorders, participants (Part A 400 mg, fasted): 0 n (%)
TEAE Musculoskeletal and connective tissue disorders, participants (Part A 400 mg, fasted): 0 n (%)
TEAE Nasopharyngitis, participants (Part A 400 mg, fasted): 0 n (%)
TEAE Nervous system disorders, participants (Part A 400 mg, fasted): 0 n (%)
TEAE Pain, participants (Part A 400 mg, fasted): 0 n (%)
TEAE Rash, no. of AEs (Part A 400 mg, fasted): 1
TEAE Rash, participants (Part A 400 mg, fasted): 1 (16.7%) n (%)
TEAE Respiratory, thoracic and mediastinal disorders, participants (Part A 400 mg, fasted): 0 n (%)
TEAE Skin and subcutaneous tissue disorders, no. of AEs (Part A 400 mg, fasted): 1
TEAE Skin and subcutaneous tissue disorders, participants (Part A 400 mg, fasted): 1 (16.7%) n (%)
TEAE Wound, participants (Part A 400 mg, fasted): 0 n (%)
Number of TEAEs, GB1211 group (Part A, all GB1211 doses): 11
Participants with TEAEs, GB1211 group (Part A, all GB1211 doses): 8
Safety concerns [1]: No safety concerns were identified
Tolerability [1]: well tolerated
Number of TEAEs [2]: 4
Participants discontinued due to TEAEs [2]: 0 n (%)
Participants with SAEs [2]: 0 n (%)
Participants with TEAEs [2]: 3 (50.0) n (%) and 3 (50.0%) n (%)
Severity (all TEAEs): Mild [2]: 3 (50.0) n (%)
Severity (all TEAEs): Moderate [2]: 0 n (%)
Severity (all TEAEs): Severe [2]: 0 n (%)
Severity (all TEAEs): Total [2]: 3 (50.0) n (%)
Severity (possibly related to study treatment): Mild [2]: 1 (16.7) n (%)
Severity (possibly related to study treatment): Moderate [2]: 0 n (%)
Severity (possibly related to study treatment): Severe [2]: 0 n (%)
Severity (possibly related to study treatment): Total [2]: 1 (16.7) n (%)
Number of TEAEs [3]: 1
Participants discontinued due to TEAEs [3]: 0 n (%)
Participants with SAEs [3]: 0 n (%)
Participants with TEAEs [3]: 1 (16.7) n (%) and 1 (16.7%) n (%)
Severity (all TEAEs): Mild [3]: 1 (16.7) n (%)
Severity (all TEAEs): Moderate [3]: 0 n (%)
Severity (all TEAEs): Severe [3]: 0 n (%)
Severity (all TEAEs): Total [3]: 1 (16.7) n (%)
Severity (possibly related to study treatment): Mild [3]: 0 n (%)
Severity (possibly related to study treatment): Moderate [3]: 0 n (%)
Severity (possibly related to study treatment): Severe [3]: 0 n (%)
Severity (possibly related to study treatment): Total [3]: 0 n (%)
Number of TEAEs [4]: 1
Participants discontinued due to TEAEs [4]: 0 n (%)
Participants with SAEs [4]: 0 n (%)
Participants with TEAEs [4]: 1 (16.7) n (%) and 1 (16.7%) n (%)
Severity (all TEAEs): Mild [4]: 1 (16.7) n (%)
Severity (all TEAEs): Moderate [4]: 0 n (%)
Severity (all TEAEs): Severe [4]: 0 n (%)
Severity (all TEAEs): Total [4]: 1 (16.7) n (%)
Severity (possibly related to study treatment): Mild [4]: 0 n (%)
Severity (possibly related to study treatment): Moderate [4]: 0 n (%)
Severity (possibly related to study treatment): Severe [4]: 0 n (%)
Severity (possibly related to study treatment): Total [4]: 0 n (%)
Number of TEAEs [5]: 1
Participants discontinued due to TEAEs [5]: 0 n (%)
Participants with SAEs [5]: 0 n (%)
Participants with TEAEs [5]: 1 (16.7) n (%) and 1 (16.7%) n (%)
Severity (all TEAEs): Mild [5]: 0 n (%)
Severity (all TEAEs): Moderate [5]: 1 n (%) and 1 (16.7) n (%)
Severity (all TEAEs): Severe [5]: 0 n (%)
Severity (all TEAEs): Total [5]: 1 (16.7) n (%)
Severity (possibly related to study treatment): Mild [5]: 0 n (%)
Severity (possibly related to study treatment): Moderate [5]: 0 n (%)
Severity (possibly related to study treatment): Severe [5]: 0 n (%)
Severity (possibly related to study treatment): Total [5]: 0 n (%)
Number of TEAEs [6]: 1
Participants discontinued due to TEAEs [6]: 0 n (%)
Participants with SAEs [6]: 0 n (%)
Participants with TEAEs [6]: 1 (16.7) n (%) and 1 (16.7%) n (%)
Severity (all TEAEs): Mild [6]: 1 (16.7) n (%)
Severity (all TEAEs): Moderate [6]: 0 n (%)
Severity (all TEAEs): Severe [6]: 0 n (%)
Severity (all TEAEs): Total [6]: 1 (16.7) n (%)
Severity (possibly related to study treatment): Mild [6]: 0 n (%)
Severity (possibly related to study treatment): Moderate [6]: 0 n (%)
Severity (possibly related to study treatment): Severe [6]: 0 n (%)
Severity (possibly related to study treatment): Total [6]: 0 n (%)
Number of TEAEs [7]: 2
Participants discontinued due to TEAEs [7]: 0 n (%)
Participants with SAEs [7]: 0 n (%)
Participants with TEAEs [7]: 1 (16.7) n (%) and 1 (16.7%) n (%)
Severity (all TEAEs): Mild [7]: 1 (16.7) n (%)
Severity (all TEAEs): Moderate [7]: 0 n (%)
Severity (all TEAEs): Severe [7]: 0 n (%)
Severity (all TEAEs): Total [7]: 1 (16.7) n (%)
Severity (possibly related to study treatment): Mild [7]: 1 (16.7) n (%)
Severity (possibly related to study treatment): Moderate [7]: 0 n (%)
Severity (possibly related to study treatment): Severe [7]: 0 n (%)
Severity (possibly related to study treatment): Total [7]: 1 (16.7) n (%)
Number of TEAEs [8]: 0
Participants discontinued due to TEAEs [8]: 0 n (%)
Participants with SAEs [8]: 0 n (%)
Participants with TEAEs [8]: 0 n (%)
Severity (all TEAEs): Mild [8]: 0 n (%)
Severity (all TEAEs): Moderate [8]: 0 n (%)
Severity (all TEAEs): Severe [8]: 0 n (%)
Severity (all TEAEs): Total [8]: 0 n (%)
Severity (possibly related to study treatment): Mild [8]: 0 n (%)
Severity (possibly related to study treatment): Moderate [8]: 0 n (%)
Severity (possibly related to study treatment): Severe [8]: 0 n (%)
Severity (possibly related to study treatment): Total [8]: 0 n (%)
Number of TEAEs [9]: 1
Participants discontinued due to TEAEs [9]: 0 n (%)
Participants with SAEs [9]: 0 n (%)
Participants with TEAEs [9]: 1 (16.7) n (%) and 1 (16.7%) n (%)
Severity (all TEAEs): Mild [9]: 1 (16.7) n (%)
Severity (all TEAEs): Moderate [9]: 0 n (%)
Severity (all TEAEs): Severe [9]: 0 n (%)
Severity (all TEAEs): Total [9]: 1 (16.7) n (%)
Severity (possibly related to study treatment): Mild [9]: 1 (16.7) n (%)
Severity (possibly related to study treatment): Moderate [9]: 0 n (%)
Severity (possibly related to study treatment): Severe [9]: 0 n (%)
Severity (possibly related to study treatment): Total [9]: 1 (16.7) n (%)
Clinical laboratory evaluation, vital signs, ECG or physical examination (single or multiple GB1211 doses): no treatment- or dose-related trend; also recorded: no clinically significant finding
Serious AEs or severe AEs [10]: no severe TEAEs or serious AEs reported
Study discontinuations due to AEs [10]: no study discontinuations due to AEs
